# Reference: patent publication US6165977A, “Isozyme-specific activators of protein kinase C methods and compositions” (Board of Trustees of the Leland Stanford Junior University, priority 1997, dated 2000)
# No end group written: not given here.
# How the values were obtained:
# εPKC [1] = target: T1, εPKC (Rattus norvegicus, UniProt P09216); test: Effect of isoform-specific inhibitory peptides on PMA-induced PKC translocation, Western blot; format: cell-based; conditions: peptide introduced by permeabilization, 10 nM PMA for 10 minutes
# T1 construct: Western Blot of cardiac myocyte soluble and particulate fractions; endogenous in cells; host or cells: primary neonatal Sprague-Dawley rat ventricular myocytes
# T1 sequence (P09216 1-737): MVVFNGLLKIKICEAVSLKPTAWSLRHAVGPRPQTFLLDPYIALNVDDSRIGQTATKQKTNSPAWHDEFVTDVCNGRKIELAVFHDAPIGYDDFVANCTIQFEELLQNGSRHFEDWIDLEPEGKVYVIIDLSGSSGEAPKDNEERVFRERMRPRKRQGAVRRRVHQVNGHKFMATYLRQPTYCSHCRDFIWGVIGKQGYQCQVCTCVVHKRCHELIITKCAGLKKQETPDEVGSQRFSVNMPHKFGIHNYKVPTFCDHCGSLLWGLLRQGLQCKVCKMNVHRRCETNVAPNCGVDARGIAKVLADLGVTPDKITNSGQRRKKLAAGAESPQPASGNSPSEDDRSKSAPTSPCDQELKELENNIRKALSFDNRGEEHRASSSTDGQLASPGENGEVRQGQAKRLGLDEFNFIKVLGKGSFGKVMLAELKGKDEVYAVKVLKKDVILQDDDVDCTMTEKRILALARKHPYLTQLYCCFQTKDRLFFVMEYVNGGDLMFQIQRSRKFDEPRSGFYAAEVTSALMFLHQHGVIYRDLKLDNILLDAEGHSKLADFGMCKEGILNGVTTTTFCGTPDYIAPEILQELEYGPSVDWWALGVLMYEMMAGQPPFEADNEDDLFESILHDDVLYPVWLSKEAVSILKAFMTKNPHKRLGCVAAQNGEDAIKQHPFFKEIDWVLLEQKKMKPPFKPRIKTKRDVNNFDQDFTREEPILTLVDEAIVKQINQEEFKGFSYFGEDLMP
# Description: (§1) Briefly, ventricles from day-old Sprague-Dawley rats were minced, and single isolated myocytes were obtained by alternating cycles of room temperature trypsinization and mechanical dissociation. […] After 30 minutes nonattached cardiac myocytes were collected and replated at a density of 800 cells per mm^2 into 8-well glass chamber slides (Nunc, Naperville, Ill.) for cell viability assays and immunofluorescence staining, into 6-well plastic culture plates (Fisher Scientific, Pittsburgh, Pa.) for lactate dehydrogenase (LDH) assays, or into 100 mm glass culture dishes for Western blot analyses. […] Experiments were conducted on culture days 6-8.
# (§2) Following treatment, medium from one plate was removed, and cells were washed twice with ice-cold phosphate-buffered saline (PBS). 1.5 ml of chilled homogenization buffer consisting of 10 mM Tris-HCl pH 7.4, 1 mM EDTA, 1 mM EGTA, 0.25 M sucrose, and […] each of phenylmethylsulfonyl fluoride, soybean trypsin inhibitor, leupeptin, and aprotinin was added to each dish. Myocytes were scraped from the plates and triturated 3 times with a tuberculin syringe attached to a 22-gauge needle. […] Supernatants were concentrated to a volume of […] with a Centricon 30 filtration unit (Amicon, Beverly, Mass.).
# cardiac myocytes [2] = test: Protection of cardiac myocytes from 9 hours of hypoxia by peptides, cell viability assay; format: cell-based, rat; conditions: after 9 hours of hypoxia; peptide introduced by saponin permeabilization; average of two experiments
# Description: (§3) Primary cell cultures were prepared as previously described (Disatnik, et al., 1994). Briefly, ventricles from day-old Sprague-Dawley rats were minced, and single isolated myocytes were obtained by alternating cycles of room temperature trypsinization and mechanical dissociation. Cells were washed and preplated in medium 199 with Hanks' salt solution (Gibco/BRL Life Technologies, Gaithersburg, Md.) containing 10% fetal bovine serum (Hyclone Laboratories, Inc., Logan, Utah) to reduce the number of contaminating non-myocardial cells (NMCs). After 30 minutes nonattached cardiac myocytes were collected and replated at a density of 800 cells per mm^2 into 8-well glass chamber slides (Nunc, Naperville, Ill.) for cell viability assays and immunofluorescence staining, into 6-well plastic culture plates (Fisher Scientific, Pittsburgh, Pa.) for lactate dehydrogenase (LDH) assays, or into 100 mm glass culture dishes for Western blot analyses. […]
# (§4) Following treatment of cardiac myocytes grown on 8-well chamber slides, living and dead cells were distinguished using the "EUKOLIGHT" Viability/Cytotoxicity assay (Molecular Probes, Eugene, Oreg.). […] The number of viable (green fluorescent by calcine) and non-viable (red fluorescent by ethidium) cardiac myocytes present in 10-20 random microscopic fields per condition per experiment was recorded. […]
# βPKC = test: Western blot of PMA-induced PKC translocation from cell soluble to particulate fraction; format: cell-based, rat; conditions: 10 nM PMA for 10 minutes, cardiac myocytes
# Description: as §1, §2
# δPKC = target: T2, δPKC (Rattus norvegicus, UniProt P09215); test: as above; format: cell-based; conditions: 10 nM PMA for 10 minutes, cardiac myocytes
# T2 construct: Western Blot of cardiac myocyte soluble and particulate fractions; endogenous in cells; host or cells: primary neonatal Sprague-Dawley rat ventricular myocytes
# T2 sequence (P09215 whole entry): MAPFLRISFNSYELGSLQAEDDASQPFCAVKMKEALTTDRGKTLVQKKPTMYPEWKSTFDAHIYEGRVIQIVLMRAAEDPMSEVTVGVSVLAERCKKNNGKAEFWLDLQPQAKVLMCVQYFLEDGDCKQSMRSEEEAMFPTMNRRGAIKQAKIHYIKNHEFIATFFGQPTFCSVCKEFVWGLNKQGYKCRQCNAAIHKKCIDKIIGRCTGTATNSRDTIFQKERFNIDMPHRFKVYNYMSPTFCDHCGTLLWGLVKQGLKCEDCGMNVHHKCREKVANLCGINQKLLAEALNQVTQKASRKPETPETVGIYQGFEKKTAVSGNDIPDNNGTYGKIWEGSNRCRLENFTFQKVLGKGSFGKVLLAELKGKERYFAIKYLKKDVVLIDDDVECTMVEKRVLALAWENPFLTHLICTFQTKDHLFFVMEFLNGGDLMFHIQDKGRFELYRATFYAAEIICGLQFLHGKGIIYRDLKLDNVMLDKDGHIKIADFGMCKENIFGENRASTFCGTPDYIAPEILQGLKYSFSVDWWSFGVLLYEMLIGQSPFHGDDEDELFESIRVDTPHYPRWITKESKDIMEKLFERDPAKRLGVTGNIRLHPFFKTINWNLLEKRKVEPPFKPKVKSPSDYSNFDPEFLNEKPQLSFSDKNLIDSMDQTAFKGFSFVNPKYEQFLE
# Description: Primary cell cultures were prepared as previously described (Disatnik, et al., 1994). Briefly, ventricles from day-old Sprague-Dawley rats were minced, and single isolated myocytes were obtained by alternating cycles of room temperature trypsinization and mechanical dissociation. Cells were washed and preplated in medium 199 with Hanks' salt solution (Gibco/BRL Life Technologies, Gaithersburg, Md.) containing 10% fetal bovine serum (Hyclone Laboratories, Inc., Logan, Utah) to reduce the number of contaminating non-myocardial cells (NMCs). […]
# Western blot analyses of cardiac myocytes grown on 100 mm glass dishes were carried out as previously described (Liu, Y., et al., 1995). […] Soluble and particulate fractions were then subjected to 12% SDS-PAGE and transferred to nitrocellulose sheets. βPKC levels were determined using monoclonal anti-βPKC antibodies (Seikagaku Kogyo, Tokyo, Japan) diluted 1:1000 followed by incubation with rabbit anti-mouse IgG antibodies (Cappel, Durham, N.C.), also at 1:1000 dilution. δPKC and εPKC levels were determined using rabbit polyclonal anti-δPKC and anti-εPKC antibodies (Gibco/BRL), each at 1:300 dilution. Western blots were then incubated with ^125 I-protein A (ICN Biomedicals, Inc., Irvine, Calif.), and PKC immunoreactive bands were detected by autoradiography.
# The ability of PMA to activate the PKC isozymes αPKC, βPKC, δPKC and εPKC was evaluated. […]
# εPKC [3] = target: T1, εPKC; test: as above; format: cell-based; conditions: 10 nM PMA for 10 minutes, cardiac myocytes
# Description: as §1, §2
# cardiac myocytes [4] = test: PMA-induced protection of cardiac myocytes from prolonged hypoxia, cell viability assay; format: cell-based, rat; conditions: 10 nM PMA for 10 minutes, washed, then 9 hours of hypoxia
# Description: as §3, §4
# εPKC [5] = target: T1, εPKC; test: Peptide-induced translocation of PKC in cardiac myocytes; format: cell-based; conditions: 10 μg/ml in permeabilization buffer
# Description: as §3
# Immunofluorescence staining of cardiac myocytes grown on 8-well glass chamber slides was carried out as previously described (Hauser, et al., 1993). […] Images were recorded on Kodak TMAX 400 film with exposure time of 1 second for all photomicrographs and were processed by an automated, commercial developer without additional adjustment. […]
compound,measurement,setting,value
EAVSLKPT [εV1-2],reduction in the particulate signal compared with PMA alone (densitometry),εPKC [1],23%
SLNPEWNET [β pseudo-RACK peptide],viable cells,cardiac myocytes [2],35%
"CCCCCCCCCCCCCC(=O)O[C@@H]1[C@@H](C)[C@@]2(O)[C@@H](C=C(CO)C[C@]3(O)C(=O)C(C)=C[C@@H]23)[C@@H]2C(C)(C)[C@]12OC(C)=O [PMA, 4β-phorbol 12-myristate 13-acetate]",translocation of βPKC from the cell soluble to the cell particulate fraction,βPKC,minimal translocation
same,translocation of δPKC in response to PMA,δPKC,robust
same,translocation of εPKC in response to PMA,εPKC [3],robust
same,increase in the proportion of surviving myocytes versus control,cardiac myocytes [4],34%
HDAPIGYD [εV1-7],cells with translocation of εPKC,εPKC [5],70%
same,viable cells,cardiac myocytes [2],65%
